Measured values reported in patent US9999650B2, “Peptide and peptidomimetic inhibitors” (Ra Pharmaceuticals, Inc., priority 2012, dated 2018).
pIC50: −log10 of the molar value. Where two headings read alike, the source gives them in different places. Numbered stars: 1 amine (or outer) side, 2 acyl side, 3 side chain; on linkers, the order of the positions; unused ones are H or OH. Bridge positions count the residues as written; N and C are the ends. Square brackets hold non-standard residues; d marks the D form. Peptide text beside a SMILES is read from it. * marks the point of attachment. NMeW = CN[C@@H](Cc1c[nH]c2ccccc12)C(=O)O; X1 = O=C(C(N[*:1])C1CCc2ccccc2C1)[*:2]; mXylylene = c1cc(C[*:1])cc(C[*:2])c1; Phg = N[C@H](C(=O)O)c1ccccc1; Tle = CC(C)(C)[C@H](N)C(=O)O; NMeS = CN[C@@H](CO)C(=O)O; Heptanoyl = CCCCCCC(=O)*; Mpa = O=C(O)CCS

Legend:
Format in all cases: biochemical
tissue kallikrein KLK13 = target: T1, tissue kallikrein KLK13 (Homo sapiens, UniProt Q9UKR3); test: Inhibitor specificity IC50 assay, KLK13 (Boc-Val-Pro-Arg-AMC); conditions: substrate Boc-Val-Pro-Arg-AMC
T1 construct: purchased R&D Systems
T1 sequence (Q9UKR3 17-277): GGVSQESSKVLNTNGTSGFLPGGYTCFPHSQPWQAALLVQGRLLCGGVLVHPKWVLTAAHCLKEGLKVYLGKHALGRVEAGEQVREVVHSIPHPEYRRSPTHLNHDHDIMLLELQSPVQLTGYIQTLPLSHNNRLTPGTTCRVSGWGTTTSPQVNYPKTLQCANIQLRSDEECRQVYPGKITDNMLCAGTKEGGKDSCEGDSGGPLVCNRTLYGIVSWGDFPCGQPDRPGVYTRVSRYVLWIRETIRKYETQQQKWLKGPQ
Protocol: (§1) Activated human plasma kallikrein (Enzyme Research Laboratories, HPKa 1303) was reacted with H-Pro-Phe-Arg-7-amido-4-methylcoumarin (H-Pro-Pre-Arg-AMC) (a fluorogenic substrate for plasma as well as pancreatic and urinary kallikreins; Bachem I-1295) and candidate inhibitory peptides to determine the IC50 of the inhibitor.
(§2) Ten 8-fold serial dilutions of peptides (10 mM DMSO stocks) were performed in DMSO and then added to TCNB (50 mM Tris-HCl pH 7.2, 150 mM NaCl, 10 mM CaCl2, 0.05% Brij-35) and sonicated. 50 μL of the peptide dilutions were added to microtitre plates (96 well, black non-binding surface, Corning, 3650) and incubated for 5 minutes at room temperature with 4 nM activated human kallikrein (final concentration after addition of fluorogenic substrate: 1 nM). The samples were then incubated for 1 hour at room temperature with 2 mM H-Pro-Phe-Arg-AMC (final concentration 500 μM). Relative Fluorescence Units (RFU) were measured at excitation/emission 360 nm/460 nm by a SpectraMax M3.
(§3) To determine the specificity of peptide inhibitors, an IC50 assay, as described in Example 4, was performed on a variety of serine proteases related to human plasma kallikrein. The enzymes tested include mouse plasma kallikrein (R&D Systems, Minneapolis, Minn.), and the human enzymes Factor VIIa (Enzyme Research Laboratories, South Bend, Ind.), Factor Xa (Enzyme Research Laboratories, South Bend, Ind.), Factor XIa (Enzyme Research Laboratories, South Bend, Ind.), Factor XIIa (Enzyme Research Laboratories, South Bend, Ind.), tissue kallikrein KLK13 (R&D Systems, Minneapolis, Minn.), thrombin (Enzyme Research Laboratories, South Bend, Ind.) and plasmin (Enzyme Research Laboratories, South Bend, Ind.).
(§4) Each enzyme was tested with the following specific fluorgenic substrates (available from Bachem; Torrance, Calif.): mouse plasma kallikrein (Pro-Phe-Arg-AMC), Factor VIIa (Boc-Val-Pro-Arg-AMC), Factor Xa (Boc-Gln-Gly-Arg-AMC), Factor XIa (Boc-Gln-Gly-Arg-AMC), Factor XIIa (Boc-Gln-Gly-Arg-AMC), KLK13 (Boc-Val-Pro-Arg-AMC), thrombin (Boc-Val-Pro-Arg-AMC) and plasmin (Boc-Val-Leu-Lys-AMC). Peptide inhibitors R2006, R2010, R2012, R2019, R2023, R2030, R2036, R2041, R2047, R2104 and R2051 were assayed.

human plasma kallikrein = target: T2, human plasma kallikrein (Homo sapiens, UniProt P03952); test: Enzyme inhibition assay (fluorogenic substrate H-Pro-Phe-Arg-AMC)
T2 construct: purchased Enzyme Research Laboratories HPKa 1303
T2 sequence (P03952 20-390 limits assumed): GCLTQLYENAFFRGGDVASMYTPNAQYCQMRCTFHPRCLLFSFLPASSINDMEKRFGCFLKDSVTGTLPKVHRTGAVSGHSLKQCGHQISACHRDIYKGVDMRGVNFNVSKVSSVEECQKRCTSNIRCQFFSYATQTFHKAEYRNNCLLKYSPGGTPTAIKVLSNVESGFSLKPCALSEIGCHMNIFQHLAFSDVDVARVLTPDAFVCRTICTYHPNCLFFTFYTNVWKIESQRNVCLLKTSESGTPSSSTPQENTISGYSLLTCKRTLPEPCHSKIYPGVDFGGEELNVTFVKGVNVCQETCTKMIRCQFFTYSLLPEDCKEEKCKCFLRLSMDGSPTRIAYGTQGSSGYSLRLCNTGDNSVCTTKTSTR
T2 sequence (P03952 391-638 limits assumed): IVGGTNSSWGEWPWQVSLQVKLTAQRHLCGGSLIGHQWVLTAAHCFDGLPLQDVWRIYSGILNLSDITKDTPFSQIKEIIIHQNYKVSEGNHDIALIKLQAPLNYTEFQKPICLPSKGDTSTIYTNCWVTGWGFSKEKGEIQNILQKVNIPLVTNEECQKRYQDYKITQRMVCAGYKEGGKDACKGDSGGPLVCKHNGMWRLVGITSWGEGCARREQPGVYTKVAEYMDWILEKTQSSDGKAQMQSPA
Outline: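 Activated enzyme (1 nM final) was preincubated 5 min at room temperature with peptides in 10-point 8-fold dilutions. The buffer was 50 mM Tris-HCl pH 7.2, 150 mM NaCl, 10 mM CaCl2, 0.05% Brij-35. After 1 h at room temperature with 500 μM substrate (final), fluorescence was read at 360/460 nm to derive IC50.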

Factor XIa = target: T3, Factor XIa (Homo sapiens, UniProt P03951); test: Inhibitor specificity IC50 assay, Factor XIa (Boc-Gln-Gly-Arg-AMC); conditions: substrate Boc-Gln-Gly-Arg-AMC
T3 construct: Factor XIa (Enzyme Research Laboratories, South Bend, Ind.); purchased Enzyme Research Laboratories
T3 sequence (P03951 19-387 limits assumed): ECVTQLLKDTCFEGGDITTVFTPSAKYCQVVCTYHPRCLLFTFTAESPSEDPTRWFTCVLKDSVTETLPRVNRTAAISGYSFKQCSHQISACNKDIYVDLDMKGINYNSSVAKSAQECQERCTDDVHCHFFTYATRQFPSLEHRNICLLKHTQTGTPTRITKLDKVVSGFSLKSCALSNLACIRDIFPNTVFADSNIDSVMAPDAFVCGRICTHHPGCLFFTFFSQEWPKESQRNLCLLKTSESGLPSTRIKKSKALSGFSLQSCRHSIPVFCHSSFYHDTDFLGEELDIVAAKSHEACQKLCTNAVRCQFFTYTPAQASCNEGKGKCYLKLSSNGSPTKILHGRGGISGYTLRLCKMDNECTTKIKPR
T3 sequence (P03951 388-625 limits assumed): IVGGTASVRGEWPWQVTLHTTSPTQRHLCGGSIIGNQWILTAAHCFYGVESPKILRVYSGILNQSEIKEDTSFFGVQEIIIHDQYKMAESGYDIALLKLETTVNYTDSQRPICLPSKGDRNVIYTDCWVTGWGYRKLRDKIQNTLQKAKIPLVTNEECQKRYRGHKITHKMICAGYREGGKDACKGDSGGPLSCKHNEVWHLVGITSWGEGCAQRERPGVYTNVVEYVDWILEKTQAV
Protocol: as §1, §2, §3, §4

Factor Xa = target: T4, Factor Xa (Homo sapiens, UniProt P00742); test: Inhibitor specificity IC50 assay, Factor Xa (Boc-Gln-Gly-Arg-AMC); conditions: substrate Boc-Gln-Gly-Arg-AMC
T4 construct: Factor Xa (Enzyme Research Laboratories, South Bend, Ind.); purchased Enzyme Research Laboratories
T4 sequence (P00742 41-179 limits assumed): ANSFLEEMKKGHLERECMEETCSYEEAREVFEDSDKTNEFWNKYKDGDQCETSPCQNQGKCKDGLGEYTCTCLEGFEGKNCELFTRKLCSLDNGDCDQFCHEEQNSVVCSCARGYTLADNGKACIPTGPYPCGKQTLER
T4 sequence (P00742 235-488 limits assumed): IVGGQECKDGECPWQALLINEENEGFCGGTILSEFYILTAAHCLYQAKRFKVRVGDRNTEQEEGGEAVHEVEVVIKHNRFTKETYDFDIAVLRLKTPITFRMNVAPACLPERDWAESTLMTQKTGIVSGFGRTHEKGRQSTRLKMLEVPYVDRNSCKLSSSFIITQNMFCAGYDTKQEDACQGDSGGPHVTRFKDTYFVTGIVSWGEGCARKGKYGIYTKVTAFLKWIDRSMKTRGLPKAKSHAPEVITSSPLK
Protocol: as §1, §2, §3, §4

thrombin = target: T5, thrombin (Homo sapiens, UniProt P00734); test: Inhibitor specificity IC50 assay, thrombin (Boc-Val-Pro-Arg-AMC); conditions: substrate Boc-Val-Pro-Arg-AMC
T5 construct: thrombin (Enzyme Research Laboratories, South Bend, Ind.); purchased Enzyme Research Laboratories
Protocol: as §1, §2, §3, §4

Factor XIIa = target: T6, Factor XIIa (Homo sapiens, UniProt P00748); test: Inhibitor specificity IC50 assay, Factor XIIa (Boc-Gln-Gly-Arg-AMC); conditions: substrate Boc-Gln-Gly-Arg-AMC
T6 construct: Factor XIIa (Enzyme Research Laboratories, South Bend, Ind.); purchased Enzyme Research Laboratories
T6 sequence (P00748 373-615 limits assumed): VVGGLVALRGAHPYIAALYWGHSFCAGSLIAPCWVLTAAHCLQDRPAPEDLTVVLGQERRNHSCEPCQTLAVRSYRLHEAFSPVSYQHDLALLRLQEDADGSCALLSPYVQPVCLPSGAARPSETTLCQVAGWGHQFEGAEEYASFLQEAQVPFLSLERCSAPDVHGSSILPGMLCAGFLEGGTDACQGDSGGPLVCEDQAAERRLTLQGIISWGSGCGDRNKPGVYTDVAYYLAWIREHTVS
Protocol: as §1, §2, §3, §4

Factor VIIa = target: T7, Factor VIIa (Homo sapiens, UniProt P08709); test: Inhibitor specificity IC50 assay, Factor VIIa (Boc-Val-Pro-Arg-AMC); conditions: substrate Boc-Val-Pro-Arg-AMC
T7 construct: Factor VIIa (Enzyme Research Laboratories, South Bend, Ind.); purchased Enzyme Research Laboratories
T7 sequence (P08709 61-212 limits assumed): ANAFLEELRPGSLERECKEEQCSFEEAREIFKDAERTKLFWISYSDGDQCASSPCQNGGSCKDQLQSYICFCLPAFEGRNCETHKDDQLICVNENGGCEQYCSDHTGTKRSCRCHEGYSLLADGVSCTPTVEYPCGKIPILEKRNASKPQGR
T7 sequence (P08709 213-466 limits assumed): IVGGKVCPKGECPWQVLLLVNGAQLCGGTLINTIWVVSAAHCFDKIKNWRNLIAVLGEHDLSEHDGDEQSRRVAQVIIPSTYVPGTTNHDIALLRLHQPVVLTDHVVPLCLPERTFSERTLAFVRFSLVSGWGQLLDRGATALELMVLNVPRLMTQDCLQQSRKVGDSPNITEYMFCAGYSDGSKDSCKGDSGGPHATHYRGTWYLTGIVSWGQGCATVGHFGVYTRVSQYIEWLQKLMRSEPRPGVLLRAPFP
Protocol: as §2, §3, §4

plasmin = target: T8, plasmin (Homo sapiens, UniProt P00747); test: Inhibitor specificity IC50 assay, plasmin (Boc-Val-Leu-Lys-AMC); conditions: substrate Boc-Val-Leu-Lys-AMC
T8 construct: plasmin (Enzyme Research Laboratories, South Bend, Ind.); purchased Enzyme Research Laboratories
T8 sequence (P00747 97-580 limits assumed): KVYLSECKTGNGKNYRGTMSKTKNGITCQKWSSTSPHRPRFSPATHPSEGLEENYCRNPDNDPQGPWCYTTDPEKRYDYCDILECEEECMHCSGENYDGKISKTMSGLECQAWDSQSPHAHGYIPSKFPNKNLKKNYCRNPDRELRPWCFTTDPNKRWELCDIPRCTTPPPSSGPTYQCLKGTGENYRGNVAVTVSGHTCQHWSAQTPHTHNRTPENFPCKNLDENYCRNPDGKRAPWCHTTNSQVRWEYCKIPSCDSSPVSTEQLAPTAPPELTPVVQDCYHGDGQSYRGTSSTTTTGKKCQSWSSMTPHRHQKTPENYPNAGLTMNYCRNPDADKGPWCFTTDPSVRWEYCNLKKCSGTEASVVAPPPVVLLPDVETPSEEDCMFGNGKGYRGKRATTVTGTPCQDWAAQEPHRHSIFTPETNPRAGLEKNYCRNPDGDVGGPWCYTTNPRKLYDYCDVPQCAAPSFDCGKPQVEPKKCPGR
T8 sequence (P00747 581-810 limits assumed): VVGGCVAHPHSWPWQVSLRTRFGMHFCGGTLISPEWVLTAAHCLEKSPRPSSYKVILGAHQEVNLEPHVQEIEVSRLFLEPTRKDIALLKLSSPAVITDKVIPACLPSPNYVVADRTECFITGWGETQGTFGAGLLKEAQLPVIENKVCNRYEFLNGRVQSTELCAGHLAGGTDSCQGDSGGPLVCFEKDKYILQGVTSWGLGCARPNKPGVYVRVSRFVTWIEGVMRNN
Protocol: as §1, §2, §3, §4

[1] = Kallikrein inhibitory activity, 1 nM activated human kallikrein, 500 μM H-Pro-Phe-Arg-AMC, 1 hour room temperature, read-out: Avg. IC50

pIC50 (tissue kallikrein KLK13)	pIC50 (human plasma kallikrein; [1])	pIC50 (Factor XIa)	pIC50 (Factor Xa)	pIC50 (thrombin)	pIC50 (Factor XIIa)	pIC50 (Factor VIIa)	pIC50 (plasmin)	pIC50 (human plasma kallikrein; Inhibitor specificity table, read-out: Human Kallikrein IC50)	Structure (SMILES)
< 4.00	8.08	< 5.08							CSCC[C@H](N)C(=O)N[C@H]1CSCc2cccc(c2)CSC[C@@H](C(=O)N[C@@H](CCCNC(=N)N)C(=O)N[C@H](C(N)=O)C(C)C)NC(=O)[C@H](c2ccccc2)NC(=O)[C@H](CO)NC(=O)[C@H](CCC(=O)O)NC1=O [Compound R2012, [mXylyl(2,6)]MCES-Phg-CRV-NH2] (H-MCES[Phg]CRV-NH2; linker 2-6 via mXylylene; N-terminus assumed)
< 4.00	8.19	< 5.32	< 5.15	< 4.00	< 4.00	< 4.00	< 4.71		CC(=O)N[C@H]1CSCc2cccc(c2)CSC[C@@H](C(=O)N[C@@H](CCCNC(=N)N)C(=O)N[C@H](C(N)=O)C(C)(C)C)NC(=O)[C@H](c2ccccc2)NC(=O)[C@H](CO)NC(=O)[C@H](C)NC1=O [Compound R2036, [mXylyl(1,5)]Ac-CAS-Phg-CR-Tbg-NH2] (Ac-CAS[Phg]CR[Tle]-NH2; linker 1-5 via mXylylene)
	6.93								CC(C)(C)[C@H](NC(=O)[C@H](CCCNC(=N)N)NC(=O)[C@@H]1CSCc2cccc(c2)CSCCC(=O)N2CCC[C@H]2C(=O)NC(C2CCc3ccccc3C2)C(=O)N1)C(N)=O (stereo partly shown) [Compound R2266] ([Mpa]P[X1]CR[Tle]-NH2; linker 1-4 via mXylylene)

Further lines, the molecule ahead of its results:

Structure (SMILES)	pIC50 (tissue kallikrein KLK13)	pIC50 (human plasma kallikrein; [1])	pIC50 (Factor XIa)	pIC50 (Factor Xa)	pIC50 (thrombin)	pIC50 (Factor XIIa)	pIC50 (Factor VIIa)	pIC50 (plasmin)	pIC50 (human plasma kallikrein; Inhibitor specificity table, read-out: Human Kallikrein IC50)
CC[C@H](C)[C@@H]1NC(=O)[C@H](CO)NC(=O)[C@@H](C)NC(=O)[C@@H](NC(C)=O)CSCc2cccc(c2)CSC[C@@H](C(=O)N[C@@H](CCCNC(=N)N)C(=O)N[C@H](C(N)=O)C(C)C)NC1=O [Compound R2047, [mXylyl(1,5)]Ac-C-a-SICRV-NH2] (Ac-C[dA]SICRV-NH2; linker 1-5 via mXylylene)	< 4.00		< 4.86	< 4.00	< 4.00	< 4.00	< 4.00	< 4.00	
CC[C@H](C)[C@@H]1NC(=O)[C@H](CO)NC(=O)[C@H](CCC(=O)O)NC(=O)[C@@H](NC(=O)[C@@H](N)CCSC)CSCc2cccc(c2)CSC[C@@H](C(=O)N[C@@H](CCCNC(=N)N)C(=O)N[C@H](C(N)=O)C(C)C)NC1=O [Compound R2006, [mXylyl(2,6)]MCESICRV-NH2] (H-MCESICRV-NH2; linker 2-6 via mXylylene)	< 4.00		< 4.94	< 5.15	< 4.00	< 4.00	< 4.00	< 4.00	7.60
CC[C@H](C)[C@@H]1NC(=O)[C@H](CO)N(C)C(=O)[C@H](CCC(=O)O)NC(=O)[C@@H](NC(=O)[C@@H](N)CCSC)CSCc2cccc(c2)CSC[C@@H](C(=O)N[C@@H](CCCNC(=N)N)C(=O)N[C@H](C(N)=O)C(C)C)NC1=O [Compound R2019, [mXylyl(2,6)]MCE-nMeS-ICRV-NH2] (H-MCE[NMeS]ICRV-NH2; linker 2-6 via mXylylene; N-terminus assumed)	< 4.79	7.28	< 5.04	< 5.00	< 4.00	< 4.90	< 4.00	< 4.68	
CCCCCCC(=O)N[C@H]1CSCc2cccc(c2)CSC[C@@H](C(=O)N[C@@H](CCCNC(=N)N)C(=O)N[C@H](C(N)=O)C(C)C)NC(=O)[C@H]([C@@H](C)CC)NC(=O)[C@H](CO)NC(=O)[C@H](CCC(=O)O)NC1=O [Compound R2041, [mXylyl(1,5)]Heptanoyl-CESICRV-NH2] (Heptanoyl-CESICRV-NH2; linker 1-5 via mXylylene)	< 4.00	7.62	< 5.27	< 5.15	< 4.00	< 4.00	< 4.75	< 4.00	
CSCC[C@H](N)C(=O)N[C@@H](CS)C(=O)N[C@@H](CC(N)=O)C(=O)N[C@@H](Cc1ccc(O)cc1)C(=O)N[C@@H](Cc1c[nH]c2ccccc12)C(=O)N[C@@H](CO)C(=O)N1CCC[C@H]1C(=O)N[C@@H](Cc1c[nH]c2ccccc12)C(=O)N[C@H](C(=O)N[C@@H](CCC(=O)O)C(=O)N[C@@H](CS)C(=O)N[C@@H](CO)C(=O)N[C@@H](C)C(N)=O)[C@@H](C)O [Compound R2104, MCNYWSPWTECSA-NH2] (H-MCNYWSPWTECSA-NH2)	< 4.00	8.47	< 5.30	< 4.00	< 4.00	< 4.00	< 4.00		
CC(=O)N[C@@H](CS)C(=O)N[C@@H](CC(N)=O)C(=O)N[C@@H](Cc1ccc(O)cc1)C(=O)N[C@@H](Cc1c[nH]c2ccccc12)C(=O)N[C@@H](CO)C(=O)N1CCC[C@H]1C(=O)N(C)[C@@H](Cc1c[nH]c2ccccc12)C(=O)N[C@H](C(=O)N[C@@H](C)C(=O)N[C@@H](CS)C(N)=O)[C@@H](C)O [Compound R2236, Ac-CNYWSP-nMeW-TAC-NH2] (Ac-CNYWSP[NMeW]TAC-NH2)		< 5.31							
CC(=O)N[C@H]1CSCc2cccc(c2)CSC[C@@H](C(N)=O)NC(=O)[C@H](C)NC(=O)[C@H]([C@@H](C)O)NC(=O)[C@H](Cc2c[nH]c3ccccc23)NC(=O)[C@@H]2CCCN2C(=O)[C@H](CO)NC(=O)[C@H](Cc2c[nH]c3ccccc23)NC(=O)[C@H](Cc2ccc(O)cc2)NC(=O)[C@H](CC(N)=O)NC1=O [Compound R2136, [mXylyl(1,10)]Ac-CNYWSPWTAC-NH2] (Ac-CNYWSPWTAC-NH2; linker 1-10 via mXylylene)		8.21							
